US20250296971A1, “GASTRIC INHIBITORY PEPTIDE RECEPTOR LIGANDS” (priority 2021, published 2025)
*1 amine or outer side, *2 acyl side, *3 side chain or, on linkers, in order; H or OH if unused. Where a SMILES comes first, the peptide text is derived from it. Bridges are numbered along the chain shown (N, C = ends). [ ]: non-standard residue; d: D form. Pyridine(2,6-diCH2) = c1cc(C[*:1])nc(C[*:2])c1; Phe(2,4-Cl2) = N[C@@H](Cc1ccc(Cl)cc1Cl)C(=O)O; Nip(3R) = O=C([C@@H]1CCCN([*:1])C1)[*:2]; Phe(4-Cl) = N[C@@H](Cc1ccc(Cl)cc1)C(=O)O; Phe(2-Cl) = N[C@@H](Cc1ccccc1Cl)C(=O)O; Pro(4,4-F2) = O=C(O)[C@@H]1CC(F)(F)CN1; 1Nal = N[C@@H](Cc1cccc2ccccc12)C(=O)O; mXylylene = c1cc(C[*:1])cc(C[*:2])c1; Hyp = O=C(O)[C@@H]1C[C@@H](O)CN1; 2Thi = N[C@@H](Cc1cccs1)C(=O)O; Cit = NC(=O)NCCC[C@H](N)C(=O)O; Pen = CC(C)(S)[C@H](N)C(=O)O; Nle = CCCC[C@H](N)C(=O)O; Thp = NC1(C(=O)O)CCOCC1; Dap = NC[C@H](N)C(=O)O; Aib = CC(C)(N)C(=O)O

Each molecule was assayed against T1, GIPR (CHO-K1-hGIPR cells) (Homo sapiens, UniProt P48546) (assay: FACS binding assay). Details: competition with 20 nM GIP-057, 4° C. for 1 hour, read-out: pIC50 Category (converted).
T1 construct: host or cells: CHO-K1
T1 sequence (P48546 22-466): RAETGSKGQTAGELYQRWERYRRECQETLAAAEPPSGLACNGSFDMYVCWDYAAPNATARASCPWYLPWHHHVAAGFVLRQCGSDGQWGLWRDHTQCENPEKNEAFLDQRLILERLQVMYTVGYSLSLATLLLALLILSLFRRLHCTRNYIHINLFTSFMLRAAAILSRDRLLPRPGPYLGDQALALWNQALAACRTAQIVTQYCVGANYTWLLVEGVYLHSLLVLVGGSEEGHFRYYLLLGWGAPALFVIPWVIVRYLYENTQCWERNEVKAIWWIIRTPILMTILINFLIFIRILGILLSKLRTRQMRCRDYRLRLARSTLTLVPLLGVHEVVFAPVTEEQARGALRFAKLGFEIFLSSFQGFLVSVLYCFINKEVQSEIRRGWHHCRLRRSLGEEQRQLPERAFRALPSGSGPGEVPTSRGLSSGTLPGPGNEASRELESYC
How it was run: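 CHO-K1 cells stably expressing human GIPR were detached with Accutase, suspended at 500.000 cells per mL in PBS with 1% FCS, and washed ice-cold. Bound peptide was detected with 1 μg/mL APC-streptavidin for 30 min on ice.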

IC50 [nM]	Compound
> 1000	CC[C@H](C)[C@@H]1NC(=O)[C@H](CC(C)C)NC(=O)C(C)(C)NC(=O)[C@@H](NC(=O)[C@H](CC(N)=O)NC(=O)[C@H](CCC(=O)O)NC(=O)[C@@H]2CCCN2C(=O)[C@H](Cc2cccc3ccccc23)NC(=O)[C@H](Cc2c[nH]c3ccccc23)NC(=O)[C@H](CC(=O)O)NC(C)=O)CSCc2cccc(c2)CSC[C@@H](C(N)=O)NC1=O [GIP-340, Ac-Asp-Trp-1Ni-Pro-Glu-Asn-[Cys(3MeBn)-Aib-Leu-Ile-Cys]-NH2] (Ac-DW[1Nal]PENC[Aib]LIC-NH2; linker 7-11 via mXylylene)
> 1000	CC[C@H](C)[C@@H]1NC(=O)[C@H](CC(C)C)NC(=O)C(C)(C)NC(=O)[C@@H](NC(=O)[C@H](CC(C)C)NC(=O)[C@H](CCC(=O)O)NC(=O)[C@@H]2CCCN(C(=O)[C@H](Cc3cccc4ccccc34)NC(=O)[C@H](Cc3c[nH]c4ccccc34)NC(=O)[C@H](CC(=O)O)NC(C)=O)C2)CSCc2cccc(c2)CSC[C@@H](C(N)=O)NC1=O [GIP-342, Ac-Asp-Trp-1Ni-Rni-Glu-Leu-[Cys(3MeBn)-Aib-Leu-Ile-Cys]-NH2] (Ac-DW[1Nal][Nip(3R)]ELC[Aib]LIC-NH2; linker 7-11 via mXylylene)
> 1000	CC[C@H](C)[C@@H]1NC(=O)[C@H](CC(C)C)NC(=O)C(C)(C)NC(=O)[C@@H](NC(=O)[C@H](Cc2cccs2)NC(=O)[C@H](CCC(=O)O)NC(=O)[C@@H]2CCCN2C(=O)[C@H](Cc2cccc3ccccc23)NC(=O)[C@H](Cc2c[nH]c3ccccc23)NC(=O)[C@H](CC(=O)O)NC(C)=O)CSCc2cccc(c2)CSC[C@@H](C(N)=O)NC1=O [GIP-343, Ac-Asp-Trp-1Ni-Pro-Glu-Thi-[Cys(3MeBn)-Aib-Leu-Ile-Cys]-NH2] (Ac-DW[1Nal]PE[2Thi]C[Aib]LIC-NH2; linker 7-11 via mXylylene)
> 1000	CC[C@H](C)[C@@H]1NC(=O)[C@H](CC(C)C)NC(=O)C(C)(C)NC(=O)[C@@H](NC(=O)[C@H](Cc2ccccc2)NC(=O)[C@H](CCC(=O)O)NC(=O)[C@@H]2CCCN2C(=O)[C@H](Cc2cccc3ccccc23)NC(=O)[C@H](Cc2c[nH]c3ccccc23)NC(=O)[C@H](CC(=O)O)NC(C)=O)CSCc2cccc(c2)CSC[C@@H](C(N)=O)NC1=O [GIP-344, Ac-Asp-Trp-1Ni-Pro-Glu-Phe-[Cys(3MeBn)-Aib-Leu-Ile-Cys]-NH2] (Ac-DW[1Nal]PEFC[Aib]LIC-NH2; linker 7-11 via mXylylene)
> 1000	CC[C@H](C)[C@@H]1NC(=O)[C@H](CC(C)C)NC(=O)C(C)(C)NC(=O)[C@@H](NC(=O)[C@H](CCCCN)NC(=O)[C@H](CCC(=O)O)NC(=O)[C@@H]2CCCN2C(=O)[C@H](Cc2cccc3ccccc23)NC(=O)[C@H](Cc2c[nH]c3ccccc23)NC(=O)[C@H](CC(=O)O)NC(C)=O)CSCc2cccc(c2)CSC[C@@H](C(N)=O)NC1=O [GIP-345, Ac-Asp-Trp-1Ni-Pro-Glu-Lys-[Cys(3MeBn)-Aib-Leu-Ile-Cys]-NH2] (Ac-DW[1Nal]PEKC[Aib]LIC-NH2; linker 7-11 via mXylylene)
> 1000	CCCC[C@H](NC(=O)[C@H](CCC(=O)O)NC(=O)[C@@H]1CCCN1C(=O)[C@H](Cc1cccc2ccccc12)NC(=O)[C@H](Cc1c[nH]c2ccccc12)NC(=O)[C@H](CC(=O)O)NC(C)=O)C(=O)N[C@H]1CSCc2cccc(c2)CSC[C@@H](C(N)=O)NC(=O)[C@H]([C@@H](C)CC)NC(=O)[C@H](CC(C)C)NC(=O)C(C)(C)NC1=O [GIP-346, Ac-Asp-Trp-1Ni-Pro-Glu-Nle-[Cys(3MeBn)-Aib-Leu-Ile-Cys]-NH2] (Ac-DW[1Nal]PE[Nle]C[Aib]LIC-NH2; linker 7-11 via mXylylene)
> 1000	CC[C@H](C)[C@@H]1NC(=O)[C@H](CC(C)C)NC(=O)C(C)(C)NC(=O)[C@@H](NC(=O)[C@H](CCCNC(N)=O)NC(=O)[C@H](CCC(=O)O)NC(=O)[C@@H]2CCCN2C(=O)[C@H](Cc2cccc3ccccc23)NC(=O)[C@H](Cc2c[nH]c3ccccc23)NC(=O)[C@H](CC(=O)O)NC(C)=O)CSCc2cccc(c2)CSC[C@@H](C(N)=O)NC1=O [GIP-347, Ac-Asp-Trp-1Ni-Pro-Glu-Cit-[Cys(3MeBn)-Aib-Leu-Ile-Cys]-NH2] (Ac-DW[1Nal]PE[Cit]C[Aib]LIC-NH2; linker 7-11 via mXylylene)
> 1000	CC[C@H](C)[C@@H]1NC(=O)[C@H](CC(C)C)NC(=O)C(C)(C)NC(=O)[C@@H](NC(=O)[C@H](CNC(C)=O)NC(=O)[C@H](CCC(=O)O)NC(=O)[C@@H]2CCCN2C(=O)[C@H](Cc2cccc3ccccc23)NC(=O)[C@H](Cc2c[nH]c3ccccc23)NC(=O)[C@H](CC(=O)O)NC(C)=O)CSCc2cccc(c2)CSC[C@@H](C(N)=O)NC1=O [GIP-348, Ac-Asp-Trp-1Ni-Pro-Glu-Dap(Ac)-[Cys(3MeBn)-Aib-Leu-Ile-Cys]-NH2] (Ac-DW[1Nal]PE[Dap](Ac)C[Aib]LIC-NH2; linker 7-11 via mXylylene)

The next lines start with the molecule.

Compound	IC50 [nM]
CC[C@H](C)[C@@H]1NC(=O)[C@H](CC(C)C)NC(=O)[C@H](C)NC(=O)[C@@H](NC(=O)[C@H](C)NC(=O)[C@H](CCC(=O)O)NC(=O)[C@@H]2CCCN2C(=O)[C@H](Cc2c[nH]c3ccccc23)NC(=O)[C@H](Cc2c[nH]c3ccccc23)NC(=O)[C@H](CC(=O)O)NC(=O)[C@H](Cc2ccc(O)cc2)NC(=O)[C@@H](N)CCSC)CSCc2cccc(c2)CSC[C@@H](C(N)=O)NC1=O [GIP-336] (H-MYDWWPEACALIC-NH2; linker 9-13 via mXylylene)	> 1000
CSCC[C@H](N)C(=O)N[C@@H](Cc1ccc(O)cc1)C(=O)N[C@@H](CC(=O)O)C(=O)N[C@@H](Cc1c[nH]c2ccccc12)C(=O)N[C@@H](Cc1c[nH]c2ccccc12)C(=O)N1CCC[C@H]1C(=O)N[C@@H](CCC(=O)O)C(=O)N[C@@H](CC(C)C)C(=O)N[C@H]1CSCc2cccc(c2)CSC[C@@H](C(N)=O)NC(=O)[C@H](C)NC(=O)[C@H](CC(C)C)NC(=O)[C@H](C)NC1=O [GIP-337] (H-MYDWWPELCALAC-NH2; linker 9-13 via mXylylene)	> 1000
CC[C@H](C)[C@@H]1NC(=O)[C@H](CC(C)C)NC(=O)C(C)(C)NC(=O)[C@@H](NC(=O)[C@H](CC(C)C)NC(=O)[C@H](CCC(=O)O)NC(=O)[C@@H]2CCCN2C(=O)[C@H](Cc2c[nH]c3ccccc23)NC(=O)[C@H](Cc2c[nH]c3ccccc23)NC(=O)[C@H](CC(=O)O)NC(C)=O)C(C)(C)SCc2cccc(c2)CSC[C@@H](C(N)=O)NC1=O [GIP-338, Ac-Asp-Trp-Trp-Pro-Glu-Leu-[Pen(3MeBn)-Aib-Leu-Ile-Cys]-NH2] (Ac-DWWPEL[Pen][Aib]LIC-NH2; linker 7-11 via mXylylene)	> 1000
CC[C@H](C)[C@@H]1NC(=O)[C@H](CC(C)C)NC(=O)C(C)(C)NC(=O)[C@@H](NC(=O)[C@H](CC(C)C)NC(=O)[C@H](CCC(=O)O)NC(=O)[C@@H]2CCCN2C(=O)[C@H](Cc2c[nH]c3ccccc23)NC(=O)[C@H](Cc2c[nH]c3ccccc23)NC(=O)[C@H](CC(=O)O)NC(C)=O)CSCc2cccc(c2)CSC(C)(C)[C@@H](C(N)=O)NC1=O [GIP-339, Ac-Asp-Trp-Trp-Pro-Glu-Leu-[Cys(3MeBn)-Aib-Leu-Ile-Pen]-NH2] (Ac-DWWPELC[Aib]LI[Pen]-NH2; linker 7-11 via mXylylene)	> 1000
CC[C@H](C)[C@@H]1NC(=O)[C@H](CC(C)C)NC(=O)C(C)(C)NC(=O)[C@@H](NC(=O)[C@H](CC(C)C)NC(=O)[C@H](CCC(=O)O)NC(=O)[C@@H]2CC(F)(F)CN2C(=O)[C@H](Cc2cccc3ccccc23)NC(=O)[C@H](Cc2c[nH]c3ccccc23)NC(=O)[C@H](CC(=O)O)NC(C)=O)CSCc2cccc(c2)CSC[C@@H](C(N)=O)NC1=O [GIP-341, Ac-Asp-Trp-1Ni-4Dfp-Glu-Leu-[Cys(3MeBn)-Aib-Leu-Ile-Cys]-NH2] (Ac-DW[1Nal][Pro(4,4-F2)]ELC[Aib]LIC-NH2; linker 7-11 via mXylylene)	> 1000
CC[C@H](C)[C@@H]1NC(=O)[C@H](CC(C)C)NC(=O)C2(CCOCC2)NC(=O)[C@@H](NC(=O)[C@@H](CC(C)C)NC(=O)[C@H](CCC(=O)O)NC(=O)[C@@H]2C[C@@H](O)CN2C(=O)[C@H](Cc2ccccc2Cl)NC(=O)[C@H](Cc2c[nH]c3ccccc23)NC(=O)[C@H](CC(=O)O)NC(C)=O)CSCc2cccc(n2)CSC[C@@H](C(N)=O)NC1=O [GIP-349, Ac-Asp-Trp-Ocf-Hyp-Glu-leu-[Cys(2Lut)-Thp-Leu-Ile-Cys]-NH2] (Ac-DW[Phe(2-Cl)][Hyp]E[dL]C[Thp]LIC-NH2; linker 7-11 via Pyridine(2,6-diCH2))	> 1000
CC[C@H](C)[C@@H]1NC(=O)[C@H](CC(C)C)NC(=O)C2(CCOCC2)NC(=O)[C@@H](NC(=O)[C@@H](CC(C)C)NC(=O)[C@H](CCC(=O)O)NC(=O)[C@@H]2C[C@@H](O)CN2C(=O)[C@H](Cc2ccc(Cl)cc2)NC(=O)[C@H](Cc2c[nH]c3ccccc23)NC(=O)[C@H](CC(=O)O)NC(C)=O)CSCc2cccc(n2)CSC[C@@H](C(N)=O)NC1=O [GIP-350, Ac-Asp-Trp-Pcf-Hyp-Glu-leu-[Cys(2Lut)-Thp-Leu-Ile-Cys]-NH2] (Ac-DW[Phe(4-Cl)][Hyp]E[dL]C[Thp]LIC-NH2; linker 7-11 via Pyridine(2,6-diCH2))	> 1000
CC[C@H](C)[C@@H]1NC(=O)[C@H](CC(C)C)NC(=O)C2(CCOCC2)NC(=O)[C@@H](NC(=O)[C@@H](CC(C)C)NC(=O)[C@H](CCC(=O)O)NC(=O)[C@@H]2C[C@@H](O)CN2C(=O)[C@H](Cc2ccc(Cl)cc2Cl)NC(=O)[C@H](Cc2c[nH]c3ccccc23)NC(=O)[C@H](CC(=O)O)NC(C)=O)CSCc2cccc(n2)CSC[C@@H](C(N)=O)NC1=O [GIP-351, Ac-Asp-Trp-Egm-Hyp-Glu-leu-[Cys(2Lut)-Thp-Leu-Ile-Cys]-NH2] (Ac-DW[Phe(2,4-Cl2)][Hyp]E[dL]C[Thp]LIC-NH2; linker 7-11 via Pyridine(2,6-diCH2))	> 1000
